Entries after “also recorded” stand apart in the source; their conditions may differ.
System: oxazolone-induced contact hypersensitivity in mice
Assay: oxazolone-induced contact hypersensitivity (hapten-specific increase in ear thickness at 24 hours)
Type: in vivo, mouse
Details: for effect on CSH/CHS response to oxazolone, systemic administration: systemic (i.p.) administration
Excerpt: 8-12 week old female C57B1/6 mice were purchased from Taconic Farms. Inc. (Germantown, N.Y.). The CD1d-null allele (generated in a 129×C57B1/6 founder (25) (26) was backcrossed 7 generations into the C57B1/6 strain. (15) Homozygous CD1d deficient mice were obtained from littermate pairings and used to generate heterozygote CD1d deficient and wild type controls. Breeding pairs of mice deficient for CD1d on the BALB/c background were purchased from Jackson Labs (Bar Harbor, Me.). The C57B1/6 and BALB/c J 281 null mice were established by specific deletion of the J 281 gene segment (27) (28). All mouse experiments were approved and conducted under IACUC guidelines.
Mice at least seven weeks of age were sensitized epicutaneously on day 0 with 70 μl of 4% 4-ethoxymethylene-2-phenyl-2-oxazolin-5-one (oxazolone, Sigma, St. Louis, Mo.) in acetone/olive oil (4/1) and challenged five days later on the right ear with 20 μl of 0.5% oxazolone or carrier only on the left ear. The hapten-specific increase in ear thickness at 24 hours was determined with a micrometer.
Mice received a series of 5 intraperitoneal injections of either 2 μg of αManCer (2 μg i.p. diluted in a solution of phosphate buffered saline and 0.5% Tween-20 every other day, starting 3 days prior to skin sensitization and continuing through to re-challenge.
Significant differences between groups were evaluated with a Mann-Whitney test, or where appropriate, a two tailed Student's t test. Mean differences were considered significant when p<0.05.

Molecule	effect on CSH/CHS response to oxazolone, systemic administration (result in words)	inhibition of oxazolone-induced CSH in MHC-unrelated mouse strains (topical 100 mg/ml, SWR, C57B1/10, DBA, BALB/c mice, FIG. 5, result in words)	Half-maximal inhibition of CSH (topical concentration) (topical, applied with 4% oxazolone at sensitization, wild type C57B1/6 mice, FIG. 4A)	inhibition of contact hypersensitivity, inhibitor present at both phases (topical, during both priming and recall, FIG. 4B, result in words)	inhibition of contact hypersensitivity, inhibitor present in one phase only (topical, only during priming or only during recall, FIG. 4B, result in words)	inhibition of oxazolone-induced contact hypersensitivity, topical at sensitization (topical, with oxazolone on day 0 (100 mg/ml, or increasing doses 0-100 mg/ml), FIG. 3, 4A, result in words)	inhibition of CSH by control substances (specificity) (specificity controls for DPPE-PEG, FIG. 2 and data not shown, result in words)
1,2-Dipalmitoyl-sn-Glycero-3-Phosphoethanolamine-N-[Poly(ethylene glycol) 2000] [DPPE-PEG]	inhibited CHS as effectively as α-ManCer	effective inhibitor in all strains tested	25 mg/mL	maximally inhibited	also inhibited, but to a lesser extent	inhibits oxazolone-induced contact hypersensitivity; also recorded: inhibit oxazolone-induced hypersensitivity in a dose-dependent manner	–
CCCCCCCCCCCCCCCC(=O)O [palmitic acid, reference compound]	–	–	–	–	–	–	neither palmitic acid, nor PEG alone were effective inhibitors of CSH
CCCCCCCCCCCCCCCCCCCCCCCCCC(=O)N[C@@H](COC1O[C@H](CO)[C@H](O)[C@H](O)[C@H]1O)[C@H](O)[C@H](O)CCCCCCCCCCCCCC (stereo partly drawn) [α-GalCer, (2S,3S,4R)-1-O-(-D-galactopyranosyl)-2-(N-hexacosanoylamino)-1,3,4-octadecanetriol, reference compound]	did not alter the CSH response	–	–	–	–	–	–
